From patent US20100184683A1, “ANTIBACTERIAL AND ANTIFUNGAL PEPTIDES” (C3 JIAN, INC., priority 2009, published 2010) come the findings set out here.

In brackets after ≈: the same amount, converted by molar mass. Peptide text beside a SMILES is read from it.

For one test, the system named is A. niger. Type of test: cell-based, Aspergillus niger. A digest of the protocol: (§1)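 MIC read-out; medium and growth conditions specific to each test organism.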
Another test deals with C. albicans. Type of test: cell-based, Candida albicans. The method, boiled down: as §1
The next test deals with S. epidermidis. Type of test: cell-based. A digest of the protocol: as §1
The subject of another test is E. faecalis. Type of test: cell-based, Enterococcus faecalis. The method, then:
In certain embodiments the MIC assays are performed as described herein in the Examples. For each organism, the media and growth conditions utilized is detailed in Table 8.
In certain embodiments the MIC assays are performed as follows: For each organism, the media and growth conditions utilized is detailed in Table 8.

The next test has as its system MRSA. Type of test: cell-based, Methicillin-resistant Staphylococcus aureus. A digest of the protocol: as §1
The next test concerns B. subtilis. Type of test: cell-based, Bacillus subtilis. The method, boiled down:
as §1

In another test the test system is T. rubrum. Type of test: cell-based, Trichophyton rubrum. A digest of the protocol: as §1

On to `CC[C@H](C)[C@H](NC(=O)[C@H](C)NC(=O)[C@H](CO)NC(=O)[C@H](CC(=O)O)NC(=O)[C@H](Cc1ccc(O)cc1)NC(=O)[C@H](C)NC(=O)[C@@H](NC(=O)[C@H](CC(C)C)NC(=O)[C@H](C)NC(=O)[C@H](CC(C)C)NC(=O)[C@H](CO)NC(=O)CNC(=O)[C@H](Cc1ccccc1)NC(=O)[C@H](CCCNC(=N)N)NC(=O)[C@@H](N)CCSC)C(C)C)C(=O)N[C@@H](CCCCN)C(=O)N[C@@H](Cc1c[nH]cn1)C(=O)N[C@@H](CO)C(=O)N[C@@H](Cc1c[nH]c2ccccc12)C(=O)N1CCC[C@H]1C(=O)N[C@@H](CCCNC(=N)N)C(=O)N1CCC[C@H]1C(=O)N[C@@H](CO)C(=O)N[C@@H](CO)C(=O)N[C@H](C(=O)N[C@@H](CCCNC(=N)N)C(=O)N[C@@H](CCCNC(=N)N)C(=O)N[C@@H](CC(C)C)C(=O)N[C@@H](CCCNC(=N)N)C(=O)N[C@@H](CCSC)C(=O)O)C(C)C` [PF-672] (H-MRFGSLALVAYDSAIKHSWPRPSSVRRLRM-OH; N-terminus and C-terminus assumed), for which the MIC turned out to be 3 µM (≈ 10.5 µg/mL) in the test with A. niger; 1.56 µM (≈ 5.44 µg/mL) in the test with C. albicans; 0.39 µM (≈ 1.36 µg/mL) against S. epidermidis; 3.13 µM (≈ 10.9 µg/mL) in the test with E. faecalis; 1.56 µM (≈ 5.44 µg/mL) with MRSA; 0.78 µM (≈ 2.72 µg/mL) against B. subtilis. The MIC against T. rubrum stood at 0.78 µM (≈ 2.72 µg/mL).

Broadly, the MIC is the lowest concentration found to suppress growth.
